PubChem BioAssay (NCI)
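GI50 marks 50% less growth. TGI marks complete inhibition of growth.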

Tests used:
Assay in all cases: NCI-60 cell line screen, 384-well format
[1] = system: HS 578T breast
[2] = system: RPMI-8226 leukemia
[3] = system: HOP-92 NSCLC
[4] = system: HL-60(TB) leukemia
[5] = system: SN12C renal
[6] = system: MDA-MB-468 breast
[7] = system: 786-0 renal
[8] = system: IGROV1 ovarian
[9] = system: HCT-15 colon
[10] = system: HOP-62 NSCLC
[11] = system: CCRF-CEM leukemia
[12] = system: COLO 205 colon
[13] = system: SF-539 CNS
[14] = system: DU-145 prostate
[15] = system: SF-295 CNS
[16] = system: PC-3 prostate
[17] = system: HCC-2998 colon
[18] = system: EKVX NSCLC
[19] = system: SNB-19 CNS
[20] = system: MOLT-4 leukemia
[21] = system: MDA-MB-435 melanoma
[22] = system: M14 melanoma
[23] = system: ACHN renal
[24] = system: HCT-116 colon
[25] = system: MDA-MB-231 breast
[26] = system: A498 renal
[27] = system: SK-MEL-28 melanoma
[28] = system: KM12 colon
[29] = system: NCI-H23 lung
[30] = system: UO-31 renal
[31] = system: SW-620 colon
[32] = system: OVCAR-3 ovarian
[33] = system: UACC-257 melanoma
[34] = system: UACC-62 melanoma
[35] = system: NCI-H226 lung
[36] = system: K-562 leukemia
[37] = system: TK-10 renal
[38] = system: NCI-H522 lung
[39] = system: OVCAR-4 ovarian
[40] = system: SK-OV-3 ovarian
[41] = system: U251 glioblastoma
[42] = system: SNB-75 CNS
[43] = system: NCI-H460 NSCLC
[44] = system: MALME-3M melanoma
[45] = system: T-47D breast
[46] = system: SF-268 CNS
[47] = system: NCI/ADR-RES ovarian
[48] = system: RXF 393 renal
[49] = system: A549 NSCLC
[50] = system: MCF7 breast
[51] = system: BT-549 breast
[52] = system: LOX IMVI melanoma
[53] = system: CAKI-1 renal
[54] = system: OVCAR-8 ovarian
[55] = system: SR leukemia
[56] = system: HT29 colon
[57] = system: SK-MEL-5 melanoma
[58] = system: NCI-H322M lung

In the case of `COc1cc2c(Nc3ccc(Cl)c(Cl)c3F)ncnc2cc1OCC1C[C@@H]2CN(C)C[C@@H]2C1` (stereo partly specified), the GI50 [1] is reported as 1080 nM, the TGI [1] is reported as 2280 nM and the GI50 [2] is reported as 1390 nM. For the same molecule, the TGI [2] was 2680 nM, the GI50 [3] was 1150 nM and the TGI [3] was 2370 nM. For the same molecule, the GI50 [4] was 1670 nM, the TGI [4] was 3030 nM and the GI50 [5] was 161 nM. It also gave a TGI [5] of 1400 nM, a GI50 [6] of 30.7 nM and a TGI [6] of 162 nM. For the same molecule, the GI50 [7] was 710 nM, the TGI [7] was 2030 nM and the GI50 [8] was 33.2 nM. It also gave a TGI [8] of 199 nM, a GI50 [9] of 890 nM and a TGI [9] of 2130 nM. For the same molecule, the GI50 [10] was 1310 nM, the TGI [10] was 2590 nM and the GI50 [11] was 1520 nM. For the same molecule, the TGI [11] was 2850 nM, the GI50 [12] was 1810 nM and the TGI [12] was 3280 nM. The GI50 [13] was 1140 nM, the TGI [13] was 2360 nM and the GI50 [14] was 557 nM. It also gave a TGI [14] of 2180 nM, a GI50 [15] of 1680 nM and a TGI [15] of 3060 nM. It also gave a GI50 [16] of 1120 nM, a TGI [16] of 2500 nM and a GI50 [17] of 1480 nM. It also gave a TGI [17] of 2810 nM, a GI50 [18] of 47.2 nM and a TGI [18] of 1130 nM. It also gave a GI50 [19] of 1410 nM, a TGI [19] of 2740 nM and a GI50 [20] of 1100 nM. The TGI [20] was 2300 nM, the GI50 [21] was 1690 nM and the TGI [21] was 3070 nM. It also gave a GI50 [22] of 1650 nM, a TGI [22] of 3020 nM and a GI50 [23] of 69.1 nM. It also gave a TGI [23] of 1280 nM, a GI50 [24] of 1390 nM and a TGI [24] of 2720 nM. It also gave a GI50 [25] of 1180 nM, a TGI [25] of 2470 nM and a GI50 [26] of 940 nM. For the same molecule, the TGI [26] was 2150 nM, the GI50 [27] was 1450 nM and the TGI [27] was 2770 nM. For the same molecule, the GI50 [28] was 1630 nM, the TGI [28] was 3010 nM and the GI50 [29] was 1020 nM. It also gave a TGI [29] of 2230 nM, a GI50 [30] of 252 nM and a TGI [30] of 1650 nM. It also gave a GI50 [31] of 1560 nM, a TGI [31] of 2900 nM and a GI50 [32] of 93.8 nM. The TGI [32] was 1520 nM, the GI50 [33] was 208 nM and the TGI [33] was 409 nM. For the same molecule, the GI50 [34] was 1120 nM, the TGI [34] was 2330 nM and the GI50 [35] was 1260 nM. It also gave a TGI [35] of 2700 nM, a GI50 [36] of 51 nM and a TGI [36] of 181 nM. For the same molecule, the GI50 [37] was 156 nM, the TGI [37] was 1230 nM and the GI50 [38] was 80.1 nM. The TGI [38] was 1440 nM, the GI50 [39] was 1360 nM and the TGI [39] was 3150 nM. For the same molecule, the GI50 [40] was 189 nM, the TGI [40] was 1430 nM and the GI50 [41] was 1600 nM. It also gave a TGI [41] of 2950 nM, a GI50 [42] of 1310 nM and a TGI [42] of 2590 nM. It also gave a GI50 [43] of 1330 nM, a TGI [43] of 2620 nM and a GI50 [44] of 1160 nM. It also gave a TGI [44] of 2380 nM, a GI50 [45] of 1020 nM and a TGI [45] of 2230 nM. The GI50 [46] was 1100 nM, the TGI [46] was 2300 nM and the GI50 [47] was 1400 nM. The TGI [47] was 2800 nM, the GI50 [48] was 512 nM and the TGI [48] was 1860 nM. For the same molecule, the GI50 [49] was 974 nM, the TGI [49] was 2160 nM and the GI50 [50] was 1090 nM. It also gave a TGI [50] of 2300 nM, a GI50 [51] of 1300 nM and a TGI [51] of 2580 nM. For the same molecule, the GI50 [52] was 1150 nM, the TGI [52] was 2380 nM and the GI50 [53] was 123 nM. It also gave a TGI [53] of 1600 nM, a GI50 [54] of 1110 nM and a TGI [54] of 2320 nM. For the same molecule, the GI50 [55] was 415 nM, the TGI [55] was 801 nM and the GI50 [56] was 598 nM. It also gave a TGI [56] of 1920 nM, a GI50 [57] of 1220 nM and a TGI [57] of 2460 nM. For the same molecule, the GI50 [58] was 31.7 nM and the TGI [58] was 366 nM.
